Experimental data: paper PMC7866122, “Development of MTH1-Binding Nucleotide Analogs Based on 7,8-Dihalogenated 7-Deaza-dG Derivatives” (International Journal of Molecular Sciences, 2021)
“Also recorded” adds a separate entry of the source. Like-named read-outs stand apart in the source and are kept apart here.

Columns and labels:
[1] = target: T1, MTH1 (Homo sapiens, UniProt P36639); test: Inhibition of the MTH1 hydrolysis of 8-oxo-dGTP (HPLC); type: biochemical; conditions: 50 μM 8-oxo-dGTP, 5 nM MTH1, pH 7.5, 37 °C, 10 min
Protocol: We examined whether the nucleoside diols, nucleoside monophosphate (NMP), and nucleoside triphosphate (NTP) derivatives inhibit the MTH1 hydrolysis of 8-oxo-dGTP. MTH1 and 8-oxo-dGTP were mixed with various concentrations of synthesized derivatives, and this mixture was incubated and analyzed by HPLC. In the case of diol compounds, 7,8-dichloro-7-deaza-dG (1), 7,8-dibromo-7-deaza-dG (2), and 7,8-diiodo-7-deaza-dG (3) exerted inhibitory effects on the hydrolytic activity of MHT1 at a micromolar level (Table 1, Entries 1–3). Their IC50 values were better than that of 8-iodo-7-deaza-dG (4) (Table 1, Entry 4).
Twenty microliters of MTH1 buffer (100 mM Tris-HCl, pH 7.5, 20 mM MgCl2, 200 mM NaCl, […] BSA, 40 mM DTT, and 50% glycerol), 10 μL (500 μM) of 8-oxo-dGTP, 55 μL of MilliQ, and 10 μL of various concentrations of substituted 7-deaza-dG derivatives were pre-incubated at 37 °C for 10 min (concentrations used: 7-deaza-dG, 7,8-dihalogenated-7-deaza-dG were 0, 0.5, 1, 2.5, 5, 10, 25, 50, 100, and 250 μM in 1% DMSO; 8-CF3-7-deazadGMP (3) was 0, 0.05, 0.1, 0.25, 0.5, 1, 2.5, 5, 10, and 25 μM; 7,8-dihalogenated-7-deaza-dGMP and –dGTP were 0, 0.0125, 0.025, 0.05, 0.1, 0.25, 0.5, 1, and 2.5 μM). Five microliters of MTH1 (0.1 pmol/μL in MTH1 buffer) was added, and the reaction mixture was incubated at 37 °C for 10 min. The resulting solutions were quenched with 100 μL of stop solution (5 mM EDTA). All samples were loaded on ice before the analysis with HPLC (HPLC conditions: A: 0.1 M TEAA, B: MeCN; Flow rate: 1.0 mL/min; Shiseido MG1 (4.6 × 250 mm); UV detector: 254 nm; 35 °C). The relative hydrolysis ratio values (ratio with inhibitor/ratio without inhibitor) were plotted at each inhibitor concentration. IC50 values were assessed using images.

[2] = target: T1, MTH1; parameters: method as in earlier work; conditions: inhibition of the hydrolytic activity of MTH1; ChemBioChem 17, 566 (2016); cited from earlier work
[3] = target: T1, MTH1; test: Steady-state kinetics of MTH1 hydrolysis of 8-oxo-dGTP (Lineweaver-Burk plot); type: biochemical; conditions: 2 nM MTH1, 37 °C
From the text: We made a Lineweaver-Burk plot to calculate kinetic parameters (KM and kcat) in order to reveal the types of inhibition modes for MTH1. […] In the presence of new 7-deaza-dG monophosphate and triphosphate, kcat values were only slightly altered (Entries 2–7). On the other hand, all KM values increased (Entries 2–7).

[4] = target: T1, MTH1; test: Hydrolysis of triphosphate derivatives by MTH1 (HPLC time course); type: biochemical; conditions: 50 μM dNTP, 5 nM MTH1, 37 °C, various times
Protocol: Since the shapes of synthesized triphosphate derivatives were similar to 8-oxo-dGTP, we investigated whether these triphosphate derivatives are hydrolyzed by MTH1. MTH1 and these triphosphate derivatives were mixed and incubated at 37 °C for various times, and hydrolysis reactions were analyzed by HPLC. […] However, in the case of 7,8-dihalogenated triphosphate derivatives, the peak of the corresponding monophosphate was not detected in HPLC following the treatment with MTH1 (Figure 2. 9: purple, 10: red and 11: blue lines).
The reaction mixture was pre-incubated at 37 °C for 10 min before the addition of MTH1 to a final volume of 100 L (final concentration: 20 mM Tris-HCl, pH 7.5, 4 mM MgCl2, 40 mM NaCl, […] bovine serum albumin (BSA), 8 mM dithiothreitol (DTT), 10% glycerol; 0.5 pmol MTH1; 50 μM 7,8-dihalogenated-7-deaza-dGTP […], 8-CF3-7-deaza-dGTP (4), and 8-oxo-dGTP). The resulting solutions were incubated at 37 °C for various times and quenched with 100 μL of stop solution (5 mM EDTA). All samples were loaded on ice before the analysis with HPLC (HPLC conditions: A: 0.1 M TEAA, B: CH3CN; Flow rate: 1.0 mL/min; Shiseido MG1 (4.6 × 250 mm); UV detector: 254 nm; column oven: 35 °C).
Figure 2 Time courses of the hydrolysis of 8-oxo-dGTP, 7-deaza-dGTP, and 7,8-dihalogenated-7-deaza-dGTP (9, 10, and 11) by MTH1. Reaction conditions: 20 mM Tris-HCl pH 7.5, 4 mM MgCl2, 40 mM NaCl, 80 μg/mL bovine serum albumin (BSA), 8 mM dithiothreitol (DTT), 10% glycerol; 50 μM 8-oxo-dGTP, 5 nM MTH1; 50 μM dNTPs; incubated at 37 °C for various times. Hydrolysis reactions were analyzed by HPLC, and the cleavage rate was calculated from the peak area.

[5] = target: T1, MTH1; parameters: method as in doi:10.1016/j.tet.2014.01.047, PMID 26879218, PMID 27372838; conditions: earlier work of the authors; cited from earlier work
[6] = 8-oxo-dGTP hydrolysis in the presence of inhibitor, 10–250 μM 8-oxo-dGTP
[7] = substrate 8-oxo-dGTP, in the absence of inhibitors

Nc1nc2c(c(Cl)c(Cl)n2[C@H]2C[C@H](O)[C@@H](CO)O2)c(=O)[nH]1 [Compound 1, 7,8-di-Chloro-7-deaza-2′-deoxy-guanosine]
IC50 [1]: 22.5 µM

Nc1nc2c(c(Br)c(Br)n2[C@H]2C[C@H](O)[C@@H](CO)O2)c(=O)[nH]1 [Compound 2, 7,8-di-Bromo-7-deaza-2′-deoxy-guanosine]
IC50 [1]: 10.7 µM

Nc1nc2c(c(I)c(I)n2[C@H]2C[C@H](O)[C@@H](CO)O2)c(=O)[nH]1 [Compound 3, 7,8-di-Iodo-7-deaza-2′-deoxy-guanosine]
IC50 [1]: 17 µM

Nc1nc2c(cc(I)n2[C@H]2C[C@H](O)[C@@H](CO)O2)c(=O)[nH]1 [Compound 4, 8-iodo-7-deaza-dG]
IC50 [2]: 44.8 µM

Nc1nc2c(c(Cl)c(Cl)n2[C@H]2C[C@H](O)[C@@H](COP(=O)(O)O)O2)c(=O)[nH]1 [Compound 5, 7,8-di-Chloro-7-deaza-2′-deoxy-guanosine monophosphate]
kcat [3, 6]: 9.7 s⁻¹
Ki ([3]; 10–250 μM 8-oxo-dGTP): 0.037 µM
IC50 [1]: 0.13 µM

Nc1nc2c(c(Br)c(Br)n2[C@H]2C[C@H](O)[C@@H](COP(=O)(O)O)O2)c(=O)[nH]1 [Compound 6, 7,8-di-Bromo-7-deaza-2′-deoxy-guanosine monophosphate]
kcat [3, 6]: 9.1 s⁻¹
Ki ([3]; 10–250 μM 8-oxo-dGTP): 0.0279 µM
IC50 [1]: 0.26 µM

Nc1nc2c(c(I)c(I)n2[C@H]2C[C@H](O)[C@@H](COP(=O)(O)O)O2)c(=O)[nH]1 [Compound 7, 7,8-di-Iodo-7-deaza-2′-deoxy-guanosine monophosphate]
kcat [3, 6]: 10.7 s⁻¹
Hydrolysis to the monophosphate by MTH1 [4]: not hydrolyzed
IC50 [1]: 0.13 µM

Nc1nc2c(ccn2[C@H]2C[C@H](O)[C@@H](COP(=O)(O)OP(=O)(O)OP(=O)(O)O)O2)c(=O)[nH]1 [Compound 7-deaza-dGTP, 7-deaza-dGTP, reference compound]
Hydrolysis to the monophosphate by MTH1 [4]: hydrolyzed, but more slowly than 8-oxo-dGTP

Nc1nc2c(cc(I)n2[C@H]2C[C@H](O)[C@@H](COP(=O)(O)O)O2)c(=O)[nH]1 [Compound 8, 8-Iodo-7-deaza-2′-deoxy-guanosine monophosphate]
IC50 [1]: 0.84 µM

NC1=NC(=O)C2=NC(=O)N([C@H]3C[C@H](O)[C@@H](COP(=O)(O)OP(=O)(O)OP(=O)(O)O)O3)C2=N1 [Compound 8-oxo-dGTP, 8-oxo-2′-deoxyguanosine-5′-triphosphate, reference compound]
Km [3, 7]: 17.6 µM
kcat [3, 7]: 10.6 s⁻¹
Hydrolysis to the monophosphate by MTH1 [4]: rapidly hydrolyzed

Nc1nc2c(c(Cl)c(Cl)n2[C@H]2C[C@H](O)[C@@H](COP(=O)(O)OP(=O)(O)OP(=O)(O)O)O2)c(=O)[nH]1 [Compound 9, 7,8-di-Chloro-7-deaza-2′-deoxy-guanosine triphosphate]
kcat [3, 6]: 9.3 s⁻¹
Ki ([3]; 10–250 μM 8-oxo-dGTP): 0.0281 µM
Hydrolysis to the monophosphate by MTH1 [4]: not detected
IC50 [1]: 0.16 µM

Nc1nc2c(c(Br)c(Br)n2[C@H]2C[C@H](O)[C@@H](COP(=O)(O)OP(=O)(O)OP(=O)(O)O)O2)c(=O)[nH]1 [Compound 10, 7,8-di-Bromo-7-deaza-2′-deoxy-guanosine triphosphate]
kcat [3, 6]: 9.4 s⁻¹
Ki ([3]; 10–250 μM 8-oxo-dGTP): 0.0242 µM
Hydrolysis to the monophosphate by MTH1 [4]: not detected; also recorded: not hydrolyzed
IC50 [1]: 0.11 µM

Nc1nc2c(c(I)c(I)n2[C@H]2C[C@H](O)[C@@H](COP(=O)(O)OP(=O)(O)OP(=O)(O)O)O2)c(=O)[nH]1 [Compound 11, 7,8-di-Iodo-7-deaza-2′-deoxy-guanosine triphosphate]
kcat [3, 6]: 11.9 s⁻¹
Ki ([3]; 10–250 μM 8-oxo-dGTP): 0.0304 µM
Hydrolysis to the monophosphate by MTH1 [4]: not detected
IC50 [1]: 0.13 µM

Nc1nc2c(cc(I)n2[C@H]2C[C@H](O)[C@@H](COP(=O)(O)OP(=O)(O)OP(=O)(O)O)O2)c(=O)[nH]1 [Compound 12, 8-iodo-7-deaza-dGTP]
IC50 [2]: 0.42 µM
Ki [5]: 0.0617 µM

CC(=O)OC[C@H]1O[C@@H](n2ccc3c(=O)[nH]c(N)nc32)C[C@@H]1OC(C)=O [Compound 13, 3′,5′-di-O-Acetyl-7-deaza-2′-deoxyguanosine]
Hydrolysis to the monophosphate by MTH1 [4]: not hydrolyzed

CNc1cc(-c2cccc(Cl)c2Cl)nc(N)n1 [TH287, reference compound]
IC50 [2]: 0.01 µM
